Measured values: patent publication US10240133B2, “ERK-derived peptides and uses thereof” (Yeda Research and Development Co. Ltd., priority 2013, dated 2019)

Assays:
[1] = tested on: other cell lines examined; assay: Apoptosis (TUNEL, PARP-1 cleavage); assay type: cell-based
Procedure: (§1) FIGS. 5A-5D illustrate that the EPE peptide leads to apoptosis of B-Raf mutant cancer cells. (A) The EPE peptide affects the morphology of treated cells. The indicated cells were treated with either the EPE or Scr peptides, DMSO, or taxol for 72 h, and photographed by a light microscope. (B) The EPE peptide induces apoptosis in melanoma cells detected by TUNEL. The indicated cell lines were treated as in A for 24 h. Apoptosis was detected by TUNEL staining. Images were obtained by florescence microscope. (C) Quantification of B. The bar-graph represents percent of apoptotic cells calculated in 10 different fields. (D) The EPE peptide induces apoptosis of melanoma cells detected by PARP cleavage. The indicated cell lines were treated as in (A) for 24 h. Cell extracts were subjected to Western blotting with αPARP Ab.
Cells were seeded on glass cover slips in a 12-wells plate at 25% confluence with medium containing 1% of FCS. Peptides (EPE or Scr), DMSO, or U0126 in a final concentration of 10 μM, were added after 4 h (considered as time “0”). TUNEL staining was performed at 24 h after the treatment according to manufacturer instruction (Roche Applied Science, Nutley, N.J., USA). Briefly, the medium was removed and cells were fixed with 3% of paraformaldehyde (1.5 h, 23° C.). Cells were rinsed twice with PBS and permeabilized with 0.1% Triton X-100 and 0.1% sodium citrate for 2 min on ice. Cells were rinsed twice with PBS and 28 μl of TUNEL reaction mixture (25 μl of TUNEL label, 2.5 μl of TUNEL enzyme and 0.1 mg/ml of DAPI) was added directly on top of the slide, cells were incubated for 16 h in humid box at 37° C. Cover slips were rinsed three times with PBS and mounted on microscope slides. The slides were dried and then subjected to image acquisition by a florescence microscope. For morphology assay, the cells were seeded at approximately 25% confluence in 6 cm plates with medium containing 1% FCS. Peptides (EPE and Scr) or DMSO or U0126 in a final concentration of 10 μM, were added after 4 h (considered to be time 0), 24 h and 48 h. Images were obtained by a light microscope (Olympus BX51) after 72 h.

[2] = tested on: N-Ras transformed melanoma cells LOXIMVI; assay: Cell viability, EPE peptide compared with PLX4032; assay type: cell-based; details: EPE 10 μM, PLX4032 1 μM, 1% FCS
Procedure: (§2) FIGS. 3A-3B illustrate that EPE peptide prevents proliferation of cancer but not normal cells. (A) Effect of the EPE peptide on the proliferation of various cell lines. Sixteen cancer and four “normal” immortalized cell lines were treated with either EPE or scrambled peptides as described above. Viable cells were assayed by Methylene Blue at 48 or 72 hours after cell seeding. The data from at least three independent experiments is presented as percent of the amount of viable cells/initial cell number, where initial cell number was considered as 100. (B) Comparison of the effects of the EPE-peptide and Raf inhibitor PLX4032 on cell viability. NHEM-Ad, LOXIMVI, A2352, Hela MDA-MB-231, and DU-145 cells were treated with EPE peptide, scrambled peptide, (10 μM), PLX4032 (1 μM), DMSO control, or no treatment at 1% FCS. The number of cells was detected as above. The graphs present the kinetic of cell growth at the indicated times. All experiments were repeated 3 times in triplicates.
(§3) All cells, except of MCF-10A, were seeded into 12-well cell plates in 1% FBS medium. MCF-10A cells were seeded in their complete medium diluted 5 fold. DMSO, Scr peptide, EPE peptide, or U0126 (final concentration of 10 μM each) were added to the appropriated wells four hours later. Every day medium was changed to fresh one containing the same agents. The number of viable cells was measured by Methylene Blue assay at 72 h after cell seeding. Shortly, cells were fixed with 4% Formaldehyde for 2 h at 23° C., washed once with 0.1M Borate Buffer pH 8.5 and stained with of 1% Methylene Blue in 0.1M Borate Buffer for 10 min. Color was extracted by adding 0.1 M HCl for 3 h at 23° C., and examined at 595 nm. For time course experiments, viable cells were measured at 0, 24, 48, 72 and 96 h after cell seeding. For dose response experiments we treaded the cells with 0.1, 1, 3, 10, or 30 μM of peptides for 72 h, as described above.

[3] = tested on: non-transformed melanocytes (NHEM-Ad); assay: Cell viability, EPE peptide compared with PLX4032; assay type: cell-based; details: EPE 10 μM, PLX4032 1 μM, 1% FCS
Procedure: as §2, §3

A2352 xenografts = assay: Tumor disappearance and recurrence in A2352 xenografts, EPE peptide compared with PLX4032; assay type: in vivo, SCID mice
Procedure: FIGS. 6A-6B illustrate that the EPE peptide prevents the growth of human tumor xenografts. CD-1 nude mice were inoculated with MDA-MB-231, LOXIMVI and HCT-116 cells, and SKID mice were inoculated with A2352 cells. Upon tumors establishment, the mice were treated intravenously with the DMSO as well as EPE or Scr peptides in the indicated doses, 3 times a week. The results are averages of 5 mice in each experimental group. The X, Y, Z dimensions of the tumors were measured with a caliper, and the volume was calculated accordingly. The significance of all experiments was at least P<0.001. (B) The EPE peptide prevents tumor recurrence on melanoma xenograft. SCID mice were inoculated with A2352 cells. Upon establishment of tumors mice were treated intravenously with 15 mg/kg EPE peptide (n=7) or intraperitonealy with 15 mg/kg PLX4032 (n=5), at the indicated dose 3 times a week. Tumor size was recorded at the same time using a caliper. Following 3 weeks of treatment, mice were kept for further evaluation monitoring for any tumor recurrence of the effective treated melanoma xenografts. Experiment was concluded 110 days post inoculation (11 weeks after the last treatment) and the overall state of the animals was evaluated. sac=sacrificed, recur=recurrence, met=metastasis.
Tumor dimensions were measured with a digital sliding caliper.

[4] = tested on: PLX-4032 and U0126 resistant A2352 melanoma cells; assay: Proliferation of inhibitor-resistant melanoma cells; assay type: cell-based
Procedure: (A) A2352 melanoma cells resistant to either PLX4032 (B-Raf) or U0126 (MEK) inhibitors were treated with DMSO, EPE or Scr peptide (10 μM), U0126 (10 μM), PLX4032 (1 μM), Wortmannin (0.5 μM) or Taxol (25 μg/ml). Presented as percent of viable cells at 72 h/initial cell number. […] Methylene blue assay was performed to quantify viable cells. Experiments were done twice in triplicate. Data presented as fold change.
A2352 cells were supplemented with either PLX4032 (B-Raf inhibitor, 1 μM), or U0126 (MEK inhibitor, 10 μM) for 45 days. […]

ERK1/2 = assay: Nuclear translocation of ERK (fluorescence microscopy, subcellular fractionation); assay type: cell-based; details: HeLa cells
Procedure: FIGS. 1A-1F illustrate that EPE peptide prevents nuclear translocation of ERK1. A2352 (A), MDA-MB-231 (B) HeLa (C), T47D (D), NHEM-AD (E) and HB2 (F) cells were serum-starved, pretreated with the EPE peptides, Scr peptide (10 μM, 2 h) DMSO and then either stimulated with TPA (250 nM, 15 min) or left untreated (NS) as control. The cells were stained with αgERK1/2 Ab and DAPI. Scale-bar—15 μm.
FIGS. 12A-12D illustrate that the EPE peptide inhibits the nuclear translocation of ERK1/2. Serum-starved (0.1% FCS, 16 hr) A2352 (FIG. 12A), HeLa (FIG. 12B), MDA-MB-231 (FIG. 12C), or LOXMVI (FIG. 12D) cells were pretreated with EPE or scrambled peptides (10 μM, 2 hr). Cells were then stimulated with EGF (50 ng/ml) or left untreated, and then harvested. Subcellular fractionation of cytoplasm and nucleus was performed as below, and fractions were subjected to Western blot analysis with the indicated Abs. Subcellular Fractionation was performed as follows: Harvested cells were resuspended in 200 μl of buffer H containing 0.1% Nonidet P-40. The lysates were mixed vigorously and centrifuged immediately to yield supernatants containing the cytosolic fraction. Nuclear proteins were extracted by resuspending the nuclear pellets in 200 μl of extraction buffer, waiting on ice for 5 min, brief sonication (2×5 sec, 40 W, 4° C.), vigorous mixing, and centrifugation. Both cytosolic and nuclear fractions were subjected to Western blotting.
A2185 (A) and A2352 (B) B-Raf melanoma cells were serum-starved (16 hours, 0.1% FBS), and then either pretreated with the EPE peptides (10 μM, 2 hours) or left untreated. Then, the cells were stimulated with TPA ([…], 20 min), or left untreated (NS) DMSO as control. The cells were stained with either anti ERK1 (Santa Cruz, C16) or anti ERK2 (C14, Santa Cruz) Abs and DAPI. (C) Quantification of the number of cell in which ERK1 or ERK2 were mostly (>80%) localized in the nucleus was performed by counting 5 fields containing 100 cells per field.
FIGS. 15A-15B illustrate that the EPE peptide prevents nuclear accumulation/translocation of ERK1/2 in PLX4032-resistant melanoma cells. A2352 that were made resistant to PLX4032 (as described under Material and Methods) and A4132 PLX4032 resistant melanoma cell from patient were serum-starved (16 hours, 0.1%), pretreated with the EPE or scrambled peptide (10 μM, 2 hours) and then either stimulated with TPA (100 nM, 20 min) or left untreated (NT) as control. The cells were stained with αgERK1/2 Ab and DAPI.
Cells were fixed in 3% paraformaldehyde in PBS (20 min, 23° C.), and then permeabilized and blocked with 0.2% Triton X-100 in PBS-BSA (2%) for 20 min at 23° C. The fixed cells were sequentially incubated with appropriated Abs, (diluted in 10 μg/ml BSA/PBS) for 1 h, followed by either Cy-2 or rhodamine-conjugated secondary Abs and DAPI (diluted in BSA/PBS, 1:200) for 1 h. To follow the subcellular localization of the biotin-conjugated peptides, cells were incubated with Avidin-FITC (diluted in BSA/PBS 1:400) and DAPI. Slides were analyzed and photographed by a fluorescent microscope (Nikon, Japan, 600× magnification).

B-Raf melanoma cells = assay: Morphology assay (light microscopy); assay type: cell-based; details: 10 μM
Procedure: as §1
Cells were seeded on glass cover slips in a 12-wells plate at 25% confluence with medium containing 1% of FCS. Peptides (EPE or Scr), DMSO, or U0126 in a final concentration of 10 μM, were added after 4 h (considered as time “0”). TUNEL staining was performed at 24 h after the treatment according to manufacturer instruction (Roche Applied Science, Nutley, N.J., USA). Briefly, the medium was removed and cells were fixed with 3% of paraformaldehyde (1.5 h, 23° C.). Cells were rinsed twice with PBS and permeabilized with 0.1% Triton X-100 and 0.1% sodium citrate for 2 min on ice. Cells were rinsed twice with PBS and 28 μl of TUNEL reaction mixture (25 μl of TUNEL label, 2.5 μl of TUNEL enzyme and 0.1 mg/ml of DAPI) was added directly on top of the slide, cells were incubated for 16 h in humid box at 37° C. Cover slips were rinsed three times with PBS and mounted on microscope slides. The slides were dried and then subjected to image acquisition by a florescence microscope. For morphology assay, the cells were seeded at approximately 25% confluence in 6 cm plates with medium containing 1% FCS. Peptides (EPE and Scr) or DMSO or U0126 in a final concentration of 10 μM, were added after 4 h (considered to be time 0), 24 h and 48 h. […]

OO [H2O2]
apoptosis / cell death [1]: clear ability to undergo a Taxol or H2O2-induced cell death

CCCS(=O)(=O)Nc1ccc(F)c(C(=O)c2c[nH]c3ncc(-c4ccc(Cl)cc4)cc23)c1F [PLX4032, reference compound]
viability [2]: not sensitive to PLX4032
viability [3]: strong inhibitory effect
time to complete disappearance of tumors (A2352 xenografts; 15 mg/kg, 3 times a week): 13 to 23 days
tumor disappearance (A2352 xenografts; 15 mg/kg, 3 times a week, 3 weeks, EPE i.v. (n=7), PLX4032 i.p. (n=5), initial ~80 mm3 tumors): complete disappearance in three mice
time to development of resistance (one mouse) (A2352 xenografts; during treatment): ≤ 13 days
mice with tumor recurrence (A2352 xenografts; follow up for up to 11 weeks after last treatment): 3 out of 5

CC(=O)O[C@H]1C(=O)[C@@]2(C)[C@H]([C@H](OC(=O)c3ccccc3)[C@]3(O)C[C@H](OC(=O)[C@H](O)[C@@H](NC(=O)c4ccccc4)c4ccccc4)C(C)=C1C3(C)C)[C@]1(OC(C)=O)CO[C@@H]1C[C@@H]2O [Taxol, reference compound]
effect in resistant compared with non-resistant cells [4]: as effective in non-resistant, as resistant cells
apoptosis / cell death [1]: clear ability to undergo a Taxol or H2O2-induced cell death

N#CC(=C(/N)Sc1ccccc1N)/C(C#N)=C(\N)Sc1ccccc1N [U0126, reference compound]
TPA-induced nuclear translocation of ERK (ERK1/2): inhibition
cell morphology (B-Raf melanoma cells): A similar appearance, albeit a weaker one

GQLNHILGILGSPSQED (Synthetic peptide (SPS)) [SPS peptide, NTS-derived peptide of ERK]
TPA-induced nuclear translocation of ERK (ERK1/2): prevented TPA-induced nuclear translocation of ERK
